Earlier results, collected in patent US20250356984A1 (priority 2022, published 2025).

Details: in vivo

For `CC(C)c1cccc(C(C)C)c1O` [propofol], the “time until target blood concentration is achieved” value is given as “under a minute”.
